Experimental data published in PMC7480398 (Phytomedicine, 2020).

Columns and labels:
Format in all cases: biochemical
PTGS1 = biological target: T1, PTGS1 (Ovis aries, UniProt P05979); test: colorimetric enzyme activity assay
T1 sequence (P05979 25-600): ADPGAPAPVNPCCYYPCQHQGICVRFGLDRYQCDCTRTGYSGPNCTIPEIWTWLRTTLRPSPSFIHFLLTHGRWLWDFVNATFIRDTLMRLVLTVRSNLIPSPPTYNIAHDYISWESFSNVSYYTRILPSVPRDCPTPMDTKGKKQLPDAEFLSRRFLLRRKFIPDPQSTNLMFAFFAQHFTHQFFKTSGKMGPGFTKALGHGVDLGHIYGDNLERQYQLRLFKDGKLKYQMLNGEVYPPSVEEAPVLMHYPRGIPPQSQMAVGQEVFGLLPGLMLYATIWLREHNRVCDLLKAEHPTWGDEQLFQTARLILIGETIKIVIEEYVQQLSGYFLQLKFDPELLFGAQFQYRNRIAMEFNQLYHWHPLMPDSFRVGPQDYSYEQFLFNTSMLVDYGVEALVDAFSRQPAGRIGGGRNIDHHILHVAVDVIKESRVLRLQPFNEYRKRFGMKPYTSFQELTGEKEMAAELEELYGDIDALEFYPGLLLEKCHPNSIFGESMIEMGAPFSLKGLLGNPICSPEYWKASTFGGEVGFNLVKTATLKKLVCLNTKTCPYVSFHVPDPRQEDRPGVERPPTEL

CYP3A4 = CYP3A4 (Homo sapiens, UniProt P08684); test: fluorescent probe substrate; conditions: liver microsomes
Chain of CYP3A4 (P08684 2-503): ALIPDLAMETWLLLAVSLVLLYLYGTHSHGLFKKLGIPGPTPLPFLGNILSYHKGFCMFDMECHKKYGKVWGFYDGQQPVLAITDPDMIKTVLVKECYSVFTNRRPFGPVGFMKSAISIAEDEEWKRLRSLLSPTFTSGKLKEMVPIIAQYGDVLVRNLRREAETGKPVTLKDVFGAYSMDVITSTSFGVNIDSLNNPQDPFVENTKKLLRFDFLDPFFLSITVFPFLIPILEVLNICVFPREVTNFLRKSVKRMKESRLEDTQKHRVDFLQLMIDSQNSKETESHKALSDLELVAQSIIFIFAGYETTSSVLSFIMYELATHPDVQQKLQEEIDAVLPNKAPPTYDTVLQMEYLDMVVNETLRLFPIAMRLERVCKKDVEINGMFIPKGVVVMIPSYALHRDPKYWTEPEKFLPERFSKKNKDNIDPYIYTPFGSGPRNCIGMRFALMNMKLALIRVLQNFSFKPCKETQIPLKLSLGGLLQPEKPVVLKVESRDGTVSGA

CYP1A1 = biological target: T2, CYP1A1 (Homo sapiens, UniProt P04798)
T2 sequence (P04798 1-512): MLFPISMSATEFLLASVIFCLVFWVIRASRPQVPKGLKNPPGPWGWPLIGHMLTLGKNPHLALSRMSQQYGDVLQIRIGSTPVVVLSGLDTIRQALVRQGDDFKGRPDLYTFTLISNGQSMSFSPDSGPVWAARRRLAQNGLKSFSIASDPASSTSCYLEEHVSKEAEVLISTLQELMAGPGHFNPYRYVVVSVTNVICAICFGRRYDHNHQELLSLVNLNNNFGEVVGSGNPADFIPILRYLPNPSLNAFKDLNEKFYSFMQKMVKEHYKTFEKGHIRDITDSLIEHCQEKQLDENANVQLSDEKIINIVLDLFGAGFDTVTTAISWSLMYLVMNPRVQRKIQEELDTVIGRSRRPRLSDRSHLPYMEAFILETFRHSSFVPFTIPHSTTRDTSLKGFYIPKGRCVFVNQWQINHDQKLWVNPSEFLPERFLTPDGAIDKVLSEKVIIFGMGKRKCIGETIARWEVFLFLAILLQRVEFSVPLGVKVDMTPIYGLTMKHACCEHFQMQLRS

Question: With `O=C(O)[C@H]1O[C@@H](Oc2cc3oc(-c4ccccc4)cc(=O)c3c(O)c2O)[C@H](O)[C@@H](O)[C@@H]1O` [baicalin] as the compound, how does the “colorimetric enzyme activity assay (590 nm)” value (PTGS1) read?
Answer: Its value is “Baicalin inhibited pure PTGS1 and AA induced platelet aggregation at the concentration as shown”.

Question: `CC(=O)O[C@@H](C[C@@H](C)C1=C2C[C@H](O)[C@H]3[C@@]4(C)CCC(=O)C(C)(C)[C@@H]4CC[C@]3(C)[C@@]2(C)CC1)[C@H]1OC1(C)C` [alisol B 23-acetate] was tested. Which IC50 (CYP3A4) did it give?
Answer: The IC50 was 0.45 ± 0.03 µM.

Question: For `O=c1c(O[C@@H]2O[C@H](CO)[C@H](O)[C@H](O)[C@H]2O)c(-c2ccc(O)c(O)c2)oc2cc(O)cc(O)c12` [hyperoside], which IC50 (CYP1A1) is on record?
Answer: The IC50 was 105 ± 18.9 µM.
